Data taken from patent US9737502B2, “Calebin A for hepatic steatosis” (SAMI LABS LIMITED, priority 2011, dated 2017).
Marks after values point to notes of the source that are not given here.

Experiments:
adiponectin = test: Study 2: serum adiponectin by ELISA in obese mice; type: in vivo, C57 mice; details: Study 2, end of study period
Procedure: Further, on completion of the study period blood samples were collected from all the animals in […] for estimation of systemic expression of leptin and adiponectin. Blood samples were collected humanely from retro-orbital plexus puncture method under mild ether anesthesia with the help of a fine capillary tube. The blood samples collected in tubes without anticoagulant were centrifuged at 3000 rpm for 10 minutes to obtain serum which was subjected to ELISA technique for the estimation of leptin and adiponectin. The import of leptin and adiponectin expression as biomarkers in obesity has been discussed in aforesaid paragraphs. […] Low systemic adiponectin levels have been cited as predictive factors in the progression of disease states like Type II Diabetes mellitus (Chamukuttan Snehalatha et al, “Plasma Adiponectin Is an Independent Predictor of Type 2 Diabetes in Asian Indians”, Diabetes Care December 2003 vol. 26 no. 12 3226-3229).

IL-1β = test: Extracellular IL-1β in LPS-stimulated murine neutrophils; type: cell-based; details: for IL-1β Concentration: LPS Control 51.80 ± 2.18
3T3-L1 preadipocytes = test: Differentiation and adipogenesis of 3T3-L1 preadipocytes, Oil Red O (Example IV); type: cell-based, Mouse; details: 5, 10, 15, 20, 25 and 30 μM for 8 days
Procedure: Mouse 3T3-L1 pre-adipocytes purchased from the American Type Culture Collection (Rockville, Md.) were grown in Dulbecco's Modified Eagle's Medium (DMEM) supplemented with 2 mM glutamine (GIBCO BRL), 1% penicillin/streptomycin (10000 units of penicillin/mL and 10 mg streptomycin/mL) and 10% fetal calf serum (FCS) at 37° C. under a humidified 5% CO2 atmosphere. Briefly, cells were seeded into 24-well (2×10^4/mL) or 10 cm dish with DMEM containing 10% fetal bovine serum (FBS) to full confluence. […]
At the end of differentiation, cells were washed twice with phosphate-buffered saline (PBS), fixed with 10% formalin for 60 min, stained with 0.5% Oil Red O in isopropanol for 1 h at room temperature. […] To quantify lipid accumulation, the stained lipid droplets were dissolved in isopropanol and the absorbance was measured at 520 nm.
Differentiation of 3T3-L1 preadipocytes stained with Oil Red O and photographed (upper and middle). 3T3-L1 preadipocytes were incubated with MDI (DMEM with IBMX, DEX, and insulin) for 2 days and then replaced with DMEM containing insulin with or without Calebin A (0, 5, 10, 15, 20, 25 and 30 μM), respectively, for 8 days, Lipid content was extracted from Oil Red O stained cells by 2-propanol and quantified by spectrophotometric analysis at 520 nm.

[1] = Study I: HFD-fed mice, diet supplementation 12 weeks; body weight, food intake, relative organ weights; details: for wt gain / Final wt / relative organ weight: Kidney / relative organ weight: liver: 12 weeks; for wt gain: HFD 16.50 ± 2.90; for Final wt: HFD 38.63 ± 3.92; for relative organ weight: Kidney / relative organ weight: liver: percentage of body weight; for Initial wt: baseline
Procedure: Male C57BL/6J mice at 5 weeks of age were purchased from the BioLASCO Experimental Animal Center (Taiwan Co., Ltd., Taipei, Taiwan) and housed in a controlled atmosphere (25±1° C. at 50% relative humidity) and with a 12-h light/12-h dark cycle. […] Animals had free access to food and water at all times. Food cups were replenished with fresh diet daily. The diet intake of animals was monitored every day and the body weight was recorded weekly. […] At the end of the study, all animals were fasted overnight and sacrificed by CO2 asphyxiation. Blood samples were collected from the heart for biochemical analysis. Liver, spleen, kidney and fat pads (perigonadal, retroperitoneal and mesenteric fat) were immediately removed, weighed (TABLE VI) and photographed. […] Body weight was monitored weekly, and the average body weight of each group was expressed as the mean±SE. Statistical analysis was done by Student's t test. (*) P<0.01, compared with ND group; (#) P<0.01, compared with HFD group.

[2] = Serum biochemistry (TCHO, TG, HDL, GOT, GPT) in HFD-fed mice, 12 weeks; type: in vivo, C57BL/6J mice; details: for GPT: HFD 38.25 ± 8.92; for HDL: HFD 109.40 ± 1.34; for TG: HFD 151.00 ± 8.89; for TCHO: HFD 162.67 ± 15.89; for GOT: HFD 335.28 ± 18.80
Procedure: Food cups were replenished with fresh diet daily. […] Statistical analysis was done by Student's t test.
C57BL/6J mice fed with HFD for period of 12 weeks were evaluated for serum levels of GOT and GTP. Results indicated enhanced serum GOT and GTP (TABLE XI) when compared to the ND group.
Data were presented as the mean±SE (n=8 per group). […] ND: normal diet; HFD: high fat diet.

3T3-L1 cells = test: Oil Red-O staining of adipogenic cultures (adipogenesis inhibition); type: cell-based, mouse
Procedure: Terminal differentiation of adipocytes is accompanied by the accumulation of great amounts of lipids in large cytoplasmic vesicles. A common assay to measure adipocyte differentiation in cell culture is with the dye Oil Red-O (ORO). ORO is a lipid-soluble bright red dye which is a reliable indicator of adipocyte differentiation (adipogenesis).
3T3-L1 cells approximately 60×10^4 cells are seeded for 48-72 hrs to get 70-80% confluence. After 48 hrs 200 μl of AIM (Adipogenesis induction medium) freshly prepared is added. 72 hrs later 200 μl APM (Adipogenesis progression medium) with the test compounds in different concentrations is added to the wells. The cells are incubated for 48 hrs in a humidified atmosphere (37° C.) of 5% CO2 and 95% air. The supernatant is collected and stored for the estimation of leptin, adiponectin, IL-6 and TNF-α by ELISA. Cells are fixed by adding 100 μl of 10% formalin and ORO staining is done. OD is read at 492 nm in microplate reader. The results are expressed as IC50 values using Graphpad prism software.
The percentage of inhibition of adipogenesis is calculated as follows, % inhibition=C−T/[…] Where C-absorbance of Oil red 0 in differentiating/undifferentiated cells T-absorbance of Oil Red-O in sample treated differentiating/undifferentiated cells. The estimation of leptin, adiponectin, IL-6 and TNF-α is done according to user's manual from R&D Systems.

In the case of COc1cc(/C=C/C(=O)COC(=O)/C=C/c2ccc(O)c(OC)c2)ccc1O [Calebin A], the “enhancing the adiponectin expression in the serum of obese animals” value (adiponectin) is reported as “significant effect”, the “% Activity (suppression of IL-1 β expression)” value (from here on “% Activity”) (IL-1β; 0.5 μg/ml) is reported as 20.38%↓ and the “IL-1β Concentration” value (IL-1β; 0.5 μg/ml) is reported as 41.24 ± 1.16 pg/mL. The “% Activity” value (IL-1β; 1.0 μg/ml) was 24.20%↓, the “IL-1β Concentration” value (IL-1β; 1.0 μg/ml) was 39.26 ± 2.52 pg/mL and the “% Activity” value (IL-1β; 2.0 μg/ml) was 28.26%↓. For the same compound, the “IL-1β Concentration” value (IL-1β; 2.0 μg/ml) was 37.16 ± 2.11 pg/mL, the “differentiation and adipogenesis of 3T3-L1 preadipocytes” value (3T3-L1 preadipocytes) was “inhibits” and the wt gain ([1]; HFD + 0.25% Calebin A) was 13.02 ± 2.52 g. The Final wt ([1]; HFD + 0.25% Calebin A) was 35.28 ± 2.38 g, the “relative organ weight: Kidney” value ([1]; HFD + 0.25% Calebin A) was 1.22 ± 0.12% and the “relative organ weight: liver” value ([1]; HFD + 0.25% Calebin A) was 4.05 ± 0.28%. For the same compound, the Initial wt ([1]; HFD + 0.25% Calebin A) was 22.27 ± 0.49 g, the wt gain ([1]; HFD + 1% Calebin A) was 10.12 ± 2.48 g and the Final wt ([1]; HFD + 1% Calebin A) was 31.99 ± 2.50 g. The “relative organ weight: Kidney” value ([1]; HFD + 1% Calebin A) was 1.30 ± 0.15%, the “relative organ weight: liver” value ([1]; HFD + 1% Calebin A) was 4.00 ± 0.25% and the Initial wt ([1]; HFD + 1% Calebin A) was 21.88 ± 0.91^ g. For the same compound, the GPT ([2]; HFD + 0.25% Calebin A) was 23.00 ± 2.92^c U/l, the HDL ([2]; HFD + 0.25% Calebin A) was 107.80 ± 2.05^a mg/dl and the TG ([2]; HFD + 0.25% Calebin A) was 121.25 ± 6.55^b mg/dl. For the same compound, the TCHO ([2]; HFD + 0.25% Calebin A) was 136.50 ± 7.51^c mg/dl, the GOT ([2]; HFD + 0.25% Calebin A) was 110.33 ± 2.52^b U/l and the GPT ([2]; HFD + 1% Calebin A) was 32.50 ± 3.00^a U/l. For the same compound, the HDL ([2]; HFD + 1% Calebin A) was 104.50 ± 8.80^a mg/dl, the TG ([2]; HFD + 1% Calebin A) was 89.75 ± 5.85^b mg/dl and the TCHO ([2]; HFD + 1% Calebin A) was 110.50 ± 17.97^a mg/dl. The GOT ([2]; HFD + 1% Calebin A) was 77.50 ± 11.12^c U/l, the percentage adipogenesis inhibition (3T3-L1 cells; 0.5 μg/ml) was 32.43% and the percentage adipogenesis inhibition (3T3-L1 cells; 1.0 μg/ml) was 38.59%. It also gave a percentage adipogenesis inhibition (3T3-L1 cells; 2.0 μg/ml) of 35.8%.
